Experiments:
[1] = target: T1, Oxysterols receptor LXR-beta (Homo sapiens, UniProt P55055)
T1 sequence (P55055 whole entry): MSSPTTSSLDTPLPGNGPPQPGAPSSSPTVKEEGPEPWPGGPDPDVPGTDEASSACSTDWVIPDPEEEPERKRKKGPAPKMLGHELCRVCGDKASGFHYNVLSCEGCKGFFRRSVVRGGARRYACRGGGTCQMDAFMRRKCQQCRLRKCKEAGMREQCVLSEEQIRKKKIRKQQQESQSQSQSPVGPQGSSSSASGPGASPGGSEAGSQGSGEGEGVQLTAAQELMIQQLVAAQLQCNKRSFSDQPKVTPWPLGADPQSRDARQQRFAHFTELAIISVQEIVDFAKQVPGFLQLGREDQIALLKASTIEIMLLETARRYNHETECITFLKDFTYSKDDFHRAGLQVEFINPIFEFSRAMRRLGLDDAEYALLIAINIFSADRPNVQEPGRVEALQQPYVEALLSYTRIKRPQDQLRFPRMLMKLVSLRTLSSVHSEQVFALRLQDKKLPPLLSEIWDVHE

[2] = target: T1, Oxysterols receptor LXR-beta; assay: Agonist activity at human recombinant LXRbeta ligand binding domain in human HuH7 cells co-transfected with fused Gal4-DBD by transactivation assay; assay type: cell-based, Huh-7
[3] = target: T2, Nuclear receptor subfamily 1 group I member 2 (Homo sapiens, UniProt O75469)
T2 sequence (O75469 whole entry): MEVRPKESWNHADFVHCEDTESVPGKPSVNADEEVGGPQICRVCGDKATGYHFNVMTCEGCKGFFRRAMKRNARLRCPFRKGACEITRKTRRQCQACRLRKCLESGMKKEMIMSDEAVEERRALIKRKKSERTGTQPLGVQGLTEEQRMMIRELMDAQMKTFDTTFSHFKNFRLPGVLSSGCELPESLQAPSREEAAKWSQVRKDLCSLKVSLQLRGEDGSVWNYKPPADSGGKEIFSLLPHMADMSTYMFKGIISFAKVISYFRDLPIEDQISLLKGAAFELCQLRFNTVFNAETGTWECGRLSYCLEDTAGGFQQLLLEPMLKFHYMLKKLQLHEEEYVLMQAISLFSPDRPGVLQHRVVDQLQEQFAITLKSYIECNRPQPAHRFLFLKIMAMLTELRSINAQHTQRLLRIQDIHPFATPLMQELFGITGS

Progesterone receptor = target: T3, Progesterone receptor (Homo sapiens, UniProt P06401); assay: Displacement of radiolabeled progesterone from human progesterone receptor by filter paper assay
T3 sequence (P06401 whole entry): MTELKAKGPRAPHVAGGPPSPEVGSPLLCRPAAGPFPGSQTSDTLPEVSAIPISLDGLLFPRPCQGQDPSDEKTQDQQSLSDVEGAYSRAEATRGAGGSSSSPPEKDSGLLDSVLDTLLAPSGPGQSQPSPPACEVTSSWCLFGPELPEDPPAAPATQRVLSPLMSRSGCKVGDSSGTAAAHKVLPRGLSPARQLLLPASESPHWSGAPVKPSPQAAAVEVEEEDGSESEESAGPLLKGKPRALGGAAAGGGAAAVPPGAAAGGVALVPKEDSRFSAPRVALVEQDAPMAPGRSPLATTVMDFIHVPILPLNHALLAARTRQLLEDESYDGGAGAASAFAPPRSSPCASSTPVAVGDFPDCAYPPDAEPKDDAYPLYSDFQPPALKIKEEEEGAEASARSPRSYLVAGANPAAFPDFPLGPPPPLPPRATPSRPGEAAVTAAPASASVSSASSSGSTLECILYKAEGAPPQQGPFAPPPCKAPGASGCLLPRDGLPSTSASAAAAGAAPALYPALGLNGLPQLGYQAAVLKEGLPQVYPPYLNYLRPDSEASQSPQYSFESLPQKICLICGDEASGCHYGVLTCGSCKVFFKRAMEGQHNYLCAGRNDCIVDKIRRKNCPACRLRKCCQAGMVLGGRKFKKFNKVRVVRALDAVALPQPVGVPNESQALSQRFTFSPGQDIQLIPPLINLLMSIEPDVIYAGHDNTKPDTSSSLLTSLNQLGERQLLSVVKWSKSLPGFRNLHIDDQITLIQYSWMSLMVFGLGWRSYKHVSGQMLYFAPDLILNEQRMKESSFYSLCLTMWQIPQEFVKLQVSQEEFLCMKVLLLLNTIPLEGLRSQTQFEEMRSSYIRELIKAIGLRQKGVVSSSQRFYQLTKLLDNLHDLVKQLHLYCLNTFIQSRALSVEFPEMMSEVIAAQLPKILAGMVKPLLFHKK

THP-1 [4] = assay: Effect on ABCA1 gene expression in human differentiated THP1 cells; assay type: functional, cell-based
THP-1 [5] = assay: Effect on ABCA1 gene expression in human differentiated THP1 cells relative to TO901317; assay type: functional
THP-1 [6] = assay: Stimulation of [3H]cholesterol efflux in human THP1 foam cells loaded with ac-LDL; assay type: functional, cell-based
THP-1 [7] = assay: Stimulation of [3H]cholesterol efflux in human THP1 foam cells loaded with ac-LDL relative to TO901317; assay type: functional
HepG2 [8] = assay: Effect on SREBP1c gene expression in human HepG2 cells; assay type: functional, cell-based
HepG2 [9] = assay: Effect on SREBP1c gene expression in human HepG2 cells relative to TO901317; assay type: functional
HepG2 [10] = assay: Effect on triglyceride accumulation in human HepG2 cells; assay type: functional, cell-based
HepG2 [11] = assay: Effect on triglyceride accumulation in human HepG2 cells relative to TO901317; assay type: functional
[12] = target: T4, Oxysterols receptor LXR-alpha (Homo sapiens, UniProt Q13133)
[13] = target: T4, Oxysterols receptor LXR-alpha; remark: listed apart in the source

Row | IC50 [1] [nM] | EC50 [2] [nM] | IC50 [3] [nM] | IC50 (Progesterone receptor) [nM] | EC50 (THP-1 [4]) [nM] | EC50 (THP-1 [6]) [nM] | EC50 (HepG2 [8]) [nM] | EC50 (HepG2 [10]) [nM] | IC50 [12] [nM] | EC50 [13] [nM] | Compound | Efficacy (THP-1 [5]) [%] | Efficacy (THP-1 [7]) [%] | Efficacy (HepG2 [9]) [%] | Efficacy (HepG2 [11]) [%]
1 | 24 | 3670 | 1770 | > 1000 | 541 | 1280 | 2110 | 1910 | 179 | 6660 | Fc1ccc(-c2c3cccc(C(F)(F)F)c3nn2Cc2ccc(F)cc2Cl)cc1 [LXR-623] | 100 | 140 | 58 | 35
2 | 33 | 4150 | 2160 | > 10000 | 551 | 549 | 1220 | 998 | 248 | 6100 | Fc1ccc(-c2c3cccc(C(F)(F)F)c3nn2Cc2ccccc2F)cc1 | 89 | 132 | 72 | 38

Source: ChEMBL document CHEMBL1152299, “Indazole-based liver X receptor (LXR) modulators with maintained atherosclerotic lesion reduction activity but diminished stimulation of hepatic triglyceride synthesis” (J Med Chem, 2008)
